# In patent EP0845217A1, “Inhibiting undesirable taste in oral compositions” (priority 1996, dated 1998):
# pKi: −log10 of the molar value.
# How the values were obtained:
# alkaline phosphatase = alkaline phosphatase (Bos taurus, UniProt P19111); format: biochemical, bovine; conditions: PNPP substrate
# Protocol: Enzyme kinetics experiments are done using purified alkaline phosphatase from bovine intestine and the substrate para-nitrophenyl phosphate (PNPP). The formation of colored para-nitrophenol (PNP) from colorless PNPP is followed by measuring the color formation in the presence of inhibitor at several concentrations.
# Specifically, enzyme reactions are done in a volume of 200 ul containing 12.5 mU/ml alkaline phosphatase, PNPP at concentrations between 0.5-200 mM, and an inhibitor at concentrations between 0-100 mM. […] Phosphoserine is the natural substrate for this enzyme. The final buffer solution is 0.9 M diethanolamine and 0.5 mM […], pH 9.8, mixed 3:1 (v:v) with water. Reactions are done in a 96-well microtiter plate. The enzyme reaction is initiated by the addition of the enzyme. Each reaction mixture is done in triplicate. The enzyme reaction is monitored by measuring the optical density (OD) at 405 nm, with a reference OD of 490 nm. The OD's are read every 30 seconds over a 15 minute period at room temperature. PNP concentration is determined based on a standard curve correlating OD405/490 vs. PNP concentration. […] The data is then transformed and plotted as the Kmapp / Vmax. vs. inhibitor concentration. From these plots the dissociation constant of the enzyme-inhibitor complex, Ki, is determined. The x-intercept on this plot equals (-Ki). […]
# [1] = test system: acid phosphatase (EC 3.1.3.2) type V; experiment: Acid phosphatase enzyme kinetics with PNPP substrate; format: biochemical, bovine
# Protocol: Enzyme kinetics are done using purified acid phosphatase (EC 3.1.3.2) type V from bovine milk with PNPP as the substrate. The enzyme kinetics experiments are done similarly to the kinetics experiments for alkaline phosphatase, described above.
# The buffer is 0.2 M sodium acetate buffer, pH 5.6. Reactions are done in a 96-well microtiter plate. The enzyme reaction is initiated by the addition of enzyme. The enzyme reaction is stopped by the addition of 50 ul of 3 N NaOH to each well. Reaction times are from 0-15 minutes, at 30 second intervals. As described previously, the reaction rate is determined by measurement of the formation of colored product, PNP, which correlates with OD405/490. Acid phosphatase has a linear enzyme reaction rate for 15 minutes with the concentration ranges tested. Calculation of the Ki is done as described above.
# [2] = test system: purified protein tyrosine phosphatase; experiment: Purified protein tyrosine phosphatase, dephosphorylation of phosphotyrosine-containing peptide substrates; format: biochemical; conditions: experiments not described
# mud puppy taste cells = experiment: Response of isolated taste cells to bitter-tasting compounds, intracellular calcium fluorescence; format: cell-based
# Protocol: Taste cells are isolated from the mud puppy, a type of salamander (S. C. Kinnamon, et al, Chemical Senses 13: 355 - 366, 1988). Briefly, a fresh mud puppy tongue is incubated with collagenase, the non-gustatory epithelium is peeled off the surface, and individual taste buds are gently drawn into a micropipette using a dissecting microscope at 50X magnification. The taste buds are plated into small vessels, that are coated with Cell-Tak, containing culture media. The taste cells can remain viable up to 18 days and maintain normal functions (C. Ruiz, et al, Experimental Cell Biology of Taste and Olfaction, Current Techniques and Protocols, A. I. Spielman and J. G. Brand, eds., CRC Press, 1995, pp. 79 - 84). The taste cells are labeled intracellularly with a marker compound that fluoresces in a dose-dependent fashion to calcium ion concentration. Since an increase in the intracellular calcium ion concentration is one of the last steps in converging biochemical signal transduction pathways for bitterness, the fluorescent marker correlates with taste cell response to bitterness (D. Restrepo, et al, Experimental Cell Biology of Taste and Olfaction, Current Techniques and Protocols, A. I. Spielman and J. G. Brand, eds., CRC Press, 1995, pp. 387 - 398). Labeled taste cells are observed microscopically using image analysis software. Using a micropipette, taste cells are exposed to bitter-tasting compounds by adding the compounds in media near the taste cell. Cells that respond to the bitter-tasting compound show an increase in fluorescence intensity. Bitter inhibitors are tested by adding them to the test solution with the bitter-tasting compound. The response of individual taste cells to bitter-tasting compounds and to bitter-tasting compounds plus inhibitor are monitored by measuring the fluorescent intensity using a microscope. Images are stored electronically and image analysis software is used to analyze the data (D. Restrepo, et al, Biophysical Journal 64: 1961 - 1966, 1993).
# [3] = test system: human taste response to bitter-tasting compounds; experiment: Human taste test: paired comparisons of bitter-tasting compounds with and without VMP; format: in vivo; conditions: inhibitor 0.3%; for Cert. (%): mean certainty score
# From the text: In this test all samples contain 5% sucrose. […] Subjects rate which sample is most bitter, and also indicate on a 7 point scale the certainty of their choice. […] However, it inhibits bitterness of phenylpropanolamine and guaifenesin to a lesser degree.
# [4] = acetaminophen 10.00 mM, total # responses 4
# [5] = acetaminophen 32.00 mM, total # responses 5
# [6] = chlorpheniramine maleate 0.100 mM, total # responses 4
# [7] = chlorpheniramine maleate 1.000 mM, total # responses 4
# [8] = dextromethorphan 0.320 mM, total # responses 4
# [9] = guaifenesin 0.320 mM, total # responses 4
# [10] = guaifenesin 3.200 mM, total # responses 4
# [11] = guaifenesin 10.00 mM, total # responses 4
# [12] = phenylpropanolamine HCl 3.200 mM, total # responses 5
# [13] = phenylpropanolamine HCl 10.00 mM, total # responses 5
# [14] = pseudoephedrine HCl 0.320 mM, total # responses 5
# [15] = pseudoephedrine HCl 1.000 mM, total # responses 5
# [16] = sucrose octaacetate 0.001 mM, total # responses 5
# [17] = sucrose octaacetate 0.003 mM, total # responses 5
# alkaline phosphatase, sequence (P19111 20-506): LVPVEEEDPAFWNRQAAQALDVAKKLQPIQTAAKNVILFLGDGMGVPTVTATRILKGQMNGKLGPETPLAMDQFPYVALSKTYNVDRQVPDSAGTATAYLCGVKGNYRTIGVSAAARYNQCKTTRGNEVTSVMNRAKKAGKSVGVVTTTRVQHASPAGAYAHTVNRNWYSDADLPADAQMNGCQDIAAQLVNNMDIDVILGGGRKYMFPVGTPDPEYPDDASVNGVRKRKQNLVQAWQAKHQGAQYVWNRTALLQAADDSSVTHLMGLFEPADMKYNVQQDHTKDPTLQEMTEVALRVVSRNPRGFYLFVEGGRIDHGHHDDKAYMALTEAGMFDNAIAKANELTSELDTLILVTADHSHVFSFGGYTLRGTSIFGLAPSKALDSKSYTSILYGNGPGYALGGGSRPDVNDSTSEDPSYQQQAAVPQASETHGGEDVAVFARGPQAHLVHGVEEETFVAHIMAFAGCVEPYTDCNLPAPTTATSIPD
substance,measurement,setting,value
vanillylmonophosphate [VMP],type of inhibition of alkaline phosphatase,alkaline phosphatase,competitively inhibited
same,type of inhibition of acid phosphatase,[1]; PNPP substrate,competitively inhibited
same,pKi,"[1]; PNPP substrate at room temperature, pH 5.6",2.04
same,effect on tyrosine phosphatase activity against peptide substrates,[2],inhibits the activity
same,effect on taste cell response to denatonium benzoate,mud puppy taste cells; inhibitor mixed with denatonium benzoate,decreases the taste cell response
same,effect on taste cell response to dextromethorphan,mud puppy taste cells; inhibitor mixed with dextromethorphan,decreases the taste cell response
same,Cert. (%),[3]; acetaminophen 10.00 mM,43%
same,Corr./Tot.,[3]; [4],0.50
same,Correct # responses,[3]; [4],2
same,Cert. (%),[3]; acetaminophen 32.00 mM,29%
same,Corr./Tot.,[3]; [5],0.80
same,Correct # responses,[3]; [5],4
same,Cert. (%),[3]; chlorpheniramine maleate 0.100 mM,54%
same,Corr./Tot.,[3]; [6],1.00
same,Correct # responses,[3]; [6],4
same,Cert. (%),[3]; chlorpheniramine maleate 1.000 mM,71%
same,Corr./Tot.,[3]; [7],1.00
same,Correct # responses,[3]; [7],4
same,Cert. (%),[3]; dextromethorphan 0.320 mM,82%
same,Corr./Tot.,[3]; [8],1.00
same,Correct # responses,[3]; [8],4
same,Cert. (%),[3]; guaifenesin 0.320 mM,14%
same,Corr./Tot.,[3]; [9],0.50
same,Correct # responses,[3]; [9],2
same,Cert. (%),[3]; guaifenesin 3.200 mM,36%
same,Corr./Tot.,[3]; [10],0.50
same,Correct # responses,[3]; [10],2
same,Cert. (%),[3]; guaifenesin 10.00 mM,57%
same,Corr./Tot.,[3]; [11],0.75
same,Correct # responses,[3]; [11],3
same,Cert. (%),[3]; phenylpropanolamine HCl 3.200 mM,11%
same,Corr./Tot.,[3]; [12],0.40
same,Correct # responses,[3]; [12],2
same,Cert. (%),[3]; phenylpropanolamine HCl 10.00 mM,49%
same,Corr./Tot.,[3]; [13],0.80
same,Correct # responses,[3]; [13],4
same,Cert. (%),[3]; pseudoephedrine HCl 0.320 mM,14%
same,Corr./Tot.,[3]; [14],0.60
same,Correct # responses,[3]; [14],3
same,Cert. (%),[3]; pseudoephedrine HCl 1.000 mM,34%
same,Corr./Tot.,[3]; [15],0.40
same,Correct # responses,[3]; [15],2
same,Cert. (%),[3]; sucrose octaacetate 0.001 mM,20%
same,Corr./Tot.,[3]; [16],0.20
same,Correct # responses,[3]; [16],1
same,Cert. (%),[3]; sucrose octaacetate 0.003 mM,23%
same,Corr./Tot.,[3]; [17],0.40
same,Correct # responses,[3]; [17],2
